According to patent US4600721A, “Pharmaceutical preparation” (Ludwig Heumann & Co., GmbH, priority 1984, dated 1986):

Columns and labels:
[1] = tested on: lipoxygenase and cyclooxygenase; conditions: known inhibitors, statement in words; cited from earlier work
[2] = tested on: PGE 2 synthesis and release; assay: Inhibition of PGE 2 synthesis and release in vitro; format: cell-based
leucocyte migration = assay: Leucocyte migration test (carrageenin-soaked polyester sponges); format: in vivo, rat; conditions: male rats, 24 hours
Procedure: Polyester sponges soaked in 2% carrageenin solution were implanted subcutaneously in the neck region of male rats (140-150 g) (see G. A. Higgs et al, Eur. J. Pharmacol. 66, 81 (1980), A. W. Ford-Hutchinson et al, J.Pharmacol. Methods 1, 3 (1978)). The sponges were removed after 24 hours. The leucocytes which had migrated in were washed out with a PBS solution (pH 7.4, 0.5% trypsin, 10 units/ml of heparin) for 30 minutes at 37° C. The sponges were then carefully squeezed and centrifuged (15 minutes, 500 revs/min). The leucocytes in the washing liquid were then counted. The test substances which had been taken up in 1% tylose and the vehicle (1% tylose) were administered intragastrally with a stomach tube immediately after implantation of the sponge and then after 5 hours and after 21 hours. The percentage inhibition of leucocyte migration after administration of the test substances was determined by comparison with the controls. The average inhibitory doses (ED50) were calculated from the regression graphs.

[3] = tested on: LTC 4 synthesis and release; assay: Inhibition of LTC 4 synthesis and release in vitro; format: cell-based
[4] = tested on: Acute inflammatory oedema of the paws; assay: Rat paw oedema test (carrageenin); format: in vivo; conditions: po, i.g., 1 hour after carrageenin injection, inhibition of increase in paw volume, male rats
Procedure: Acute inflammatory oedema of the paws was induced in male rats (100-120 g) by subplantar injection of 0.1 ml of 2% carrageenin (dissolved in aqueous 0.9% NaCl solution). The volume of the paws was measured with a paw volume measuring instrument 1 hour and 4 hours after the carrageenin injection. The differences in paw volume between the two measurements was calculated. The test substances were suspended in 1% tylose and administered intragastrally through a stomach tube one hour after the carrageenin injection.
The controls were given vehicle alone (1% tylose). The percentage inhibition of increase in volume in the treated animals was obtained from a comparison with the untreated controls. The average inhibitory doses (ED50) were calculated on the basis of the regression graphs.

CC(C(=O)O)c1ccc2oc(-c3ccc(Cl)cc3)nc2c1 (centres unmarked) [Benoxaprofene]
selective inhibitory action on lipoxygenase or inhibition of both lipoxygenase and cyclooxygenase [1]: known inhibitors of this kind

CC=NNc1nc2ccccc2s1 [Example 1, N-(benzothiazol-2-yl)-acetaldehyde hydrazone]
PGE 2 (% of controls) ([2]; at 10^-4): 12 % of controls
PGE 2 (% of controls) ([2]; at 10^-5): 38 % of controls
PGE 2 (% of controls) ([2]; at 10^-6): 89 % of controls
Inhibition of leucocyte migration (control = 0%) (leucocyte migration; 40 mg/kg i.g.): 50%
LTC 4 (% of controls) ([3]; at 10^-5): > 100 % of controls
LTC 4 (% of controls) ([3]; at 10^-6): > 100 % of controls
ED50 [4]: 15 mg/kg

CC(C)=NNc1nc2ccccc2s1 [Example 2, N-(benzothiazol-2-yl)-acetone hydrazone]
PGE 2 (% of controls) ([2]; at 10^-4): 20 % of controls
PGE 2 (% of controls) ([2]; at 10^-5): 43 % of controls
PGE 2 (% of controls) ([2]; at 10^-6): 103 % of controls
Inhibition of leucocyte migration (control = 0%) (leucocyte migration; 50 mg/kg i.g.): 34%
LTC 4 (% of controls) ([3]; at 10^-4): 16 % of controls
LTC 4 (% of controls) ([3]; at 10^-5): 41 % of controls
LTC 4 (% of controls) ([3]; at 10^-6): 89 % of controls
ED50 [4]: 10 mg/kg

CCC=NNc1nc2ccccc2s1 [Example 3, N-(benzothiazol-2-yl)-propionaldehyde hydrazone]
PGE 2 (% of controls) ([2]; at 10^-4): 8 % of controls
PGE 2 (% of controls) ([2]; at 10^-5): 37 % of controls
PGE 2 (% of controls) ([2]; at 10^-6): 61 % of controls
LTC 4 (% of controls) ([3]; at 10^-4): 24 % of controls
LTC 4 (% of controls) ([3]; at 10^-5): > 100 % of controls
LTC 4 (% of controls) ([3]; at 10^-6): > 100 % of controls
ED50 [4]: 20 mg/kg

CCC(C)=NNc1nc2ccccc2s1 [Example 4, N-(benzothiazol-2-yl)-methyl ethyl ketone hydrazone]
ED50 [4]: 10 mg/kg

CC=NNc1nc2ccccc2o1 [Example 5, N-(benzoxazol-2-yl)-acetaldehyde hydrazone]
ED50 [4]: 20 mg/kg

CC(C)=NNc1nc2ccccc2o1 [Example 6, N-(benzoxazol-2-yl)-acetone hydrazone]
ED50 [4]: 10 mg/kg

CCC=NNc1nc2ccccc2o1 [Example 7, N-(benzoxazol-2-yl)-propionaldehyde hydrazone]
ED50 [4]: 20 mg/kg

O=CNNc1nc2ccccc2s1 [Example 8, benzothiazol-2-one-(β-formyl hydrazone)]
PGE 2 (% of controls) ([2]; at 10^-4): 82 % of controls
PGE 2 (% of controls) ([2]; at 10^-5): 112 % of controls
PGE 2 (% of controls) ([2]; at 10^-6): 105 % of controls
Inhibition of leucocyte migration (control = 0%) (leucocyte migration; 50 mg/kg i.g.): 67%
LTC 4 (% of controls) ([3]; at 10^-4): 11 % of controls
LTC 4 (% of controls) ([3]; at 10^-5): 70 % of controls
LTC 4 (% of controls) ([3]; at 10^-6): > 100 % of controls
ED50 [4]: 14 mg/kg
